Test results from paper PMC3706088 (Journal of medicinal chemistry, 2013).
“Also recorded” adds a separate entry of the source. Like-named read-outs stand apart in the source and are kept apart here.

Key:
rCB1 [1] = target: T1, rCB1 (Rattus norvegicus, UniProt P20272); format: cell-based; conditions: for functional profile in cAMP assay: CB1
[2] = target: CB1-E cannabinoid receptors (Homo sapiens, UniProt P21554); assay: β-arrestin2 translocation assay, U2OS cells expressing CB1-E and β-arrestin2-GFP; conditions: for in vitro functional characterization, CB1 profile: conclusion of the in vitro functional assays; for β-arrestin2 translocation efficacy, 95% confidence interval: normalized to the response of WIN55212-2 set to 1, N = 3
mCB2 = mCB2 (Mus musculus, UniProt P47936); assay: Radioligand competition binding with [3H]CP-55,940, mouse spleen membranes; conditions: from Ki values
hCB2 = hCB2 (Homo sapiens, UniProt P34972); format: binding; conditions: from Ki values
rCB1 [3] = target: T1, rCB1; assay: Radioligand competition binding with [3H]CP-55,940, rat brain membranes; conditions: relative to 11; across rCB1, mCB2 and hCB2
[4] = tested on: Female Sprague-Dawley rats; assay: Hypothermia: body temperature in rats over 6 h after injection; conditions: rat, up to a dose of 10.0 mg/kg s.c.
[5] = tested on: Female Sprague-Dawley rats; assay: Antinociception: tail-flick procedure in rats over 6 h after injection; conditions: rat, up to doses of 10.0 mg/kg s.c.

T1 sequence (P20272 whole entry): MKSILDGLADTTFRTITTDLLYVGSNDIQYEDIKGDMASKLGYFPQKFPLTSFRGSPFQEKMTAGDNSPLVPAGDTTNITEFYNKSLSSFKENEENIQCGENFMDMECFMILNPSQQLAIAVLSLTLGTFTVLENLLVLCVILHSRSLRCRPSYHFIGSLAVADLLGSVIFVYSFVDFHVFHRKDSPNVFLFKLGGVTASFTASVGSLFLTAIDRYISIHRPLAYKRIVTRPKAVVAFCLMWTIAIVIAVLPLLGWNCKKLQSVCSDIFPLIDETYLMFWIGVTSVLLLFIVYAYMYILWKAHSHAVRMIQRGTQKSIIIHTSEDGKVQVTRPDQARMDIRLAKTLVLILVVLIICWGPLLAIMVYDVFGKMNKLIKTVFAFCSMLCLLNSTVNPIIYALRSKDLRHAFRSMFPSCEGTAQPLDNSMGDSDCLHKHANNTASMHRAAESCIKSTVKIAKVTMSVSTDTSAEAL
Chain of CB1-E cannabinoid receptors (P21554 1-415): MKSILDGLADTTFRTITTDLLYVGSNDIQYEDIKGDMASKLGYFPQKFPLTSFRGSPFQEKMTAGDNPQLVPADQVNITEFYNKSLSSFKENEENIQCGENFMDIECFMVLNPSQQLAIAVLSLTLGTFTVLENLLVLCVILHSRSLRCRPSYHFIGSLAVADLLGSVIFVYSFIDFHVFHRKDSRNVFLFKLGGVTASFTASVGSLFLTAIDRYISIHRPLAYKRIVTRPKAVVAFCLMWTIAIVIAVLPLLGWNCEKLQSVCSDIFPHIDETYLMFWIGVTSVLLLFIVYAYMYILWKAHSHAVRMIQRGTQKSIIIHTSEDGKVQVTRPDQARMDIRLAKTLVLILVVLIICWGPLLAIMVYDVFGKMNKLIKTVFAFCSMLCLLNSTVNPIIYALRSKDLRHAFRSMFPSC
Chain of CB1-E cannabinoid receptors (P25103 309-407 partner): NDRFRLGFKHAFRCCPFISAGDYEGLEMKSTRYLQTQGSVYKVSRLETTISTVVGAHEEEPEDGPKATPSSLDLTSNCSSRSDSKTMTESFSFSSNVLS
Chain of mCB2 (P47936 whole entry): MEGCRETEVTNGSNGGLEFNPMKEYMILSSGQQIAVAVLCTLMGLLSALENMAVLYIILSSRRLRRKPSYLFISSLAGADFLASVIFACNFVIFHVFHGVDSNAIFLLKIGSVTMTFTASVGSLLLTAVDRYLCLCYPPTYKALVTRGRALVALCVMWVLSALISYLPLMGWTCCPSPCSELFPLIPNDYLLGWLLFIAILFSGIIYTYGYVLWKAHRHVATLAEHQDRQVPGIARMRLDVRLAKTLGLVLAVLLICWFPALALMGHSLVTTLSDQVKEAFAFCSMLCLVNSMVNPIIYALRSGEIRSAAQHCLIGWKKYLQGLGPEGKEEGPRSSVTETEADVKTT
Chain of hCB2 (P34972 whole entry): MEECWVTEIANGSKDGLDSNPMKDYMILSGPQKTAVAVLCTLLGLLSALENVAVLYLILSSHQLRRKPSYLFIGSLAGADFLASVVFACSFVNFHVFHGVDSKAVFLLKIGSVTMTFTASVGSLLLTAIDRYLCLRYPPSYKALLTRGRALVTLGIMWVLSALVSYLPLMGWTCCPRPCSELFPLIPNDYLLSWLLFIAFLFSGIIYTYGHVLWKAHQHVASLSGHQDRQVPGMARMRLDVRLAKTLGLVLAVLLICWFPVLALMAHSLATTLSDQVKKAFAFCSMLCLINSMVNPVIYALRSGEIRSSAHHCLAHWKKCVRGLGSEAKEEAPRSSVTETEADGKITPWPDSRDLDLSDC

SMILES	EC50 (rCB1 [1])	functional profile in cAMP assay (rCB1 [1])	in vitro functional characterization, CB1 profile [2]	β-arrestin2 translocation efficacy, 95% confidence interval [2]	CB1 selectivity over mCB2 (mCB2)	antinociceptive effects (tail-flick) [5]	other results
CC1(C)Oc2cc(C34CC5CC(CC(C5)C3)C4)cc(O)c2[C@@H]2C[C@H](CO)CC[C@H]21 [Compound 11, (6aR,9R,10aR)-3-(Adamantan-1-yl)-9-(hydroxymethyl)-6,6-dimethyl-6a,7,8,9,10,10a-hexahydro-6H-benzo[c]chromen-1-ol]	1.29 nM	potent CB1 agonist	high efficacy CB1 agonists	0.65–0.92	–	–	functional profile in cAMP assay (rCB1 [1]; listed as AM4054): agonist
CC1(C)Oc2cc(C34CC5CC(CC(C5)C3)C4)cc(O)c2[C@@H]2C[C@H](CCO)CC[C@H]21 [Compound 16, (6aR,9R,10aR)-3-(Adamantan-1-yl)-9-(2-hydroxyethyl)-6,6-dimethyl-6a,7,8,9,10,10a-hexahydro-6H-benzo[c]chromen-1-ol]	–	–	–	–	~ 4 fold	–	CB1 selectivity over hCB2 (hCB2): ~ 4 fold
CC1(C)Oc2cc(C34CC5CC(CC(C5)C3)C4)cc(O)c2[C@@H]2C[C@@H](CO)CC[C@H]21 [Compound 17, (6aR,9S,10aR)-3-(Adamantan-1-yl)-9-(hydroxymethyl)-6,6-dimethyl-6a,7,8,9,10,10a-hexahydro-6H-benzo[c]chromen-1-ol]	–	–	–	–	–	–	lower affinities than β-hydroxymethyl isomer 11 (rCB1 [3]): 6- to 11 fold
CC1=CC[C@@H]2[C@@H](C1)c1c(O)cc(C34CC5CC(CC(C5)C3)C4)cc1OC2(C)C [Compound 1]	–	–	–	0.43–0.81	–	neither had significant antinociceptive effects	hypothermic effects [4]: did not have hypothermic effects
CC1(C)Oc2cc(C34CC5CC(CC(C5)C3)C4)cc(O)c2[C@@H]2CC(CO)=CC[C@H]21 [Compound 22, (6aR,10aR)-3-(Adamantan-1-yl)-9-(hydroxymethyl)-6,6-dimethyl-6a, 7, 10, 10a-tetrahydro-6H-benzo[c]chromen-1-ol]	–	–	high efficacy CB1 agonists	0.54–0.80	–	–	–
CC1(C)Oc2cc(C34CC5CC(CC(C5)C3)C4)cc(O)c2-c2cc(CO)ccc21 [Compound 24]	7.97 nM	CB1 partial agonist; also recorded: partial CB1 agonist	–	0.68–0.94	15 fold	neither had significant antinociceptive effects	functional profile in cAMP assay (rCB1 [1]; listed as AM4089): partial agonist
